Data on two substances can be found in patent US11951131B2, “Anti-SLAMF7 chimeric antigen receptors” (The United States of America, as represented by the …, priority 2018, dated 2024).

Entries after “also recorded” stand apart in the source; their conditions may differ.

Data set [1] can be described thus: Signs of CAR T-cell-mediated toxicity in mice. The following applies: mice after CAR T-cell infusion. Format: in vivo. As to the method: First, MM.1S human SLAMF7^+ multiple myeloma cell line tumors were established in immunodeficient mice. In this model, the MM.1S cells formed a solid cutaneous mass. Measurable tumors were allowed to develop over 7 days, and then the mice were treated with a single intravenous infusion of MSGV1-IC9-Luc90-CD828Z-transduced human T cells. NSG mice (NOD.Cg-Prkdc^scid Il2rg^tm1Wjl/SzJ) from The Jackson Laboratory, Bar Harbor, Me., were used. Mice received intradermal injections of 4×10^6 MM.1S cells. The cells were suspended in a 1:1 mixture of MATRIGEL™ gelatinous protein mixture (BD Biosciences) and PBS (Phosphate-buffered saline) for injection. Tumors were allowed to grow for 7 days, and then each mouse received a single intravenous infusion of human T cells that were transduced with one of 3 CARs: IC9-Luc90-CD828Z (suicide gene+anti-SLAMF7 CAR), Luc90-CD828Z (anti-SLAMF7 CAR alone), or a negative-control anti-CD19 CAR Hu19-CD828Z. A 4th group was left untreated. All groups included 5 mice. After CAR T-cell infusion, the tumors were measured with calipers every 3 days. The longest length and the length perpendicular to the longest length and the tumor thickness were multiplied together to obtain the tumor volume in mm^3. When the longest length reached 15 mm, mice were sacrificed. Animal studies were approved by the National Cancer Institute Animal Care and Use Committee. […]

In a further data set the test system is CCRF-CEM. Briefly: IFN-gamma ELISA, CAR T cells with CCRF-CEM target cells. Format: cell-based, human. The text has this: (§1) MM.1S is a SLAMF7^+ multiple myeloma cell line that was obtained from American Type Culture Collection (ATCC). A549 is a BCMA-negative lung cancer cell line (ATCC). TC71 is a BCMA-negative sarcoma cell line. CCRF-CEM, 293T, and A549 are SLAMF7-negative cell lines (ATCC). COL0207, HepG2, U251, Panc10.05, and TC71 are […] that were kind gifts from Dr. Steven Rosenberg, National Cancer Institute. SLAMF7-K562 are K562 cells (ATCC) which were transduced with the gene for full-length SLAMF7. SLAMF7-RPMI are RPMI8226 cells (ATCC) which were transduced with the gene for full-length SLAMF7. NGFR-K562 are K562 cells which were transduced with the gene for low-affinity nerve growth factor (Kochenderfer et al., J. Immunother., 32(7): 689-702 (2009)). All of the human samples mentioned were obtained from patients enrolled in IRB-approved clinical trials at the National Cancer Institute.
(§2) One-hundred thousand SLAMF7^+ or SLAMF7-negative target cells were combined with 100,000 CAR-transduced T cells in duplicate wells of a 96 well round bottom plate in 200 µL of AIM V™ medium (Invitrogen) plus 5% human serum. The plates were incubated at 37° C. for 18-20 hours. Following the incubation, ELISAs (enzyme-linked immunosorbent assays) for IFNγ were performed by using standard methods.
(§3) All values are pg/mL of IFN-gamma. T cells that were either untransduced or transduced with one of the indicated CARs were cultured with target cells overnight, and a standard IFN-gamma ELISA was performed on the culture supernatant.
(ELISA stands for enzyme-linked immunosorbent assay.)

The next data set concerns SLAMF7-K562. Briefly: IFN-gamma ELISA, CAR T cells cultured overnight with SLAMF7-K562 target cells. Type of data set: cell-based, human.
Text: as §1, §2
(§4) The T cells columns indicate whether T cells were transduced with Luc90-CD828Z, Luc63-CD828Z, or were untransduced. The % CAR^+ in Table B-1 was determined by staining the T cells with Protein L. Except for the % CAR^+ column, all values are pg/mL of IFN-gamma. T cells that were either untransduced or transduced with one of the indicated CARs were cultured with target cells overnight and a standard IFN-gamma ELISA was performed on the culture supernatant.
as §3

The next data set deals with T cells only. Briefly: IFN-gamma ELISA, T cells only (no target cells). Format: cell-based, human. The protocol:
as §2, §4, §3
(§5) The values in the cells are pg/mL of IFN-gamma. T cells that were either untransduced or transduced with one of the indicated CARs were cultured with target cells overnight, and a standard IFN-gamma ELISA was performed on the culture supernatant. The concentrations of 0, 50, or 200 ng/mL at the top of each column indicates the concentration of soluble SLAMF7 added to all T cell plus target cell overnight cultures in that column. The soluble SLAMF7 was added at the beginning of the overnight culture.

The next data set has as its system SLAMF7-K562 target cells. Briefly: CFSE proliferation assay. The settings on record: SLAMF7-K562 versus NGFR-K562 target cells, 4 days (FIGS. 8B, 8C). Format: cell-based, human. The text has this:
Cocultures were set up in 24-well plates. Target cells included in cocultures were either 0.5×10^6 irradiated SLAMF7-K562 cells or 0.5×10^6 irradiated NGFR-K562 cells. The cocultures also included 1×10^6 T cells from cultures that had been transduced with either […]. The T cells were labeled with carboxy fluorescein diacetate succinimidyl ester (CFSE, Invitrogen) as previously described. The medium used in the cocultures was AIM V™ (Invitrogen) plus 5% human AB serum. IL-2 was not added to the medium. Four days after initiation, the live cells in each coculture were counted with trypan blue for dead cell exclusion, and flow cytometry was performed by Protein L staining.

Another data set concerns NGFR-K562. Briefly: IFN-gamma ELISA, CAR T cells with NGFR-K562 target cells. Format: cell-based, human.
Text: as §1, §2, §4, §3, §5

A further data set has as its system MM.1S. Briefly: IFN-gamma ELISA, CAR T cells with MM.1S target cells. Format: cell-based, human.
Text: as §1, §2, §3

For the next data set, the system named is 293T. Briefly: IFN-gamma ELISA, CAR T cells with 293T target cells. The following applies: Table B-1; SLAMF7-negative cell line. Type of data set: cell-based, human.
Text: as §1
One-hundred thousand SLAMF7^+ or SLAMF7-negative target cells were combined with 100,000 CAR-transduced T cells in duplicate wells of a 96 well round bottom plate in 200 µL of AIM V™ medium (Invitrogen) plus 5% human serum. […]
The T cells columns indicate whether T cells were transduced with Luc90-CD828Z, Luc63-CD828Z, or were untransduced. The % CAR^+ in Table B-1 was determined by staining the T cells with Protein L. Except for the % CAR^+ column, all values are pg/mL of IFN-gamma. […]

For “IC9-Luc90-CD828Z: CAR plus suicide gene construct (SEQ ID NO: 31): IC9 suicide gene 5′ to the CAR, T2A, Luc90-CD828Z”, the “signs of CAR T-cell-mediated toxicity” value in data set [1] is listed as “did not exhibit any signs of CAR T-cell-mediated toxicity; also recorded: did not exhibit ruffled fur or decreased activity; also recorded: no toxicity”. Also, the “IFN-gamma, CCRF-CEM” value with CCRF-CEM (Table E) stood at 33 pg/mL. In addition, in the data set on SLAMF7-K562 (Table E, overnight culture), the “IFN-gamma, SLAMF7-K562” value was determined as 2225 pg/mL. In addition, the “IFN-gamma, T-cells Alone” value in the data set with T cells only (Table E) was determined as 38 pg/mL. For the same substance, the “proliferation (CFSE dilution)” value in the data set with SLAMF7-K562 target cells is “proliferated specifically in response to SLAMF7^+ target cells; also recorded: proliferated more”. Also, the “IFN-gamma, NGFR-K562” value in the data set on NGFR-K562 (Table E) is 30 pg/mL. Moreover, the “IFN-gamma, MM.1S” value with MM.1S (Table E) came to 1849 pg/mL.

On to “Luc90-CD828Z: anti-SLAMF7 CAR (SEQ ID NO: 27): murine Luc90 scFv, human CD8a hinge and TM, CD28 and CD3ζ domains; tested as transduced T cells”, for which the “signs of CAR T-cell-mediated toxicity” value in data set [1] is on record as “did not exhibit ruffled fur or decreased activity”. Besides, in the data set on 293T, the “IFN-gamma, target cells 293T” value is recorded as 37 pg/mL. Besides, the “IFN-gamma, target cells CCRF-CEM” value in the data set with CCRF-CEM (Table C) is 16 pg/mL. The “IFN-gamma, target cells SLAMF7-K562” value with SLAMF7-K562 (Table B-1, overnight culture) is 16579 pg/mL; in the data set on SLAMF7-K562 (Table B-2, overnight culture), 20055 pg/mL; in the data set on SLAMF7-K562 (Table C), 15759 pg/mL. In addition, the “IFN-gamma, T cells only” value with T cells only (Table B-2) worked out at 29 pg/mL; in the data set with T cells only (Table C), 33 pg/mL. In addition, the “IFN-gamma, T cells 0 ng/ml” value in the data set on T cells only (Table D, no target cells, soluble SLAMF7 0 ng/ml) amounted to 172 pg/mL. For the same substance, the “IFN-gamma, T cells 50 ng/ml” value with T cells only (Table D, no target cells, soluble SLAMF7 50 ng/ml) turned out to be 160 pg/mL. Besides, in the data set on T cells only (Table D, no target cells, soluble SLAMF7 200 ng/ml), the “IFN-gamma, T cells 200 ng/ml” value stood at 41 pg/mL. Also, the “proliferation (CFSE dilution)” value with SLAMF7-K562 target cells is listed as “proliferated specifically in response to SLAMF7^+ target cells”. The “IFN-gamma, target cells NGFR-K562” value is listed as 45 pg/mL in the data set on NGFR-K562 (Table B-2, SLAMF7-negative) and 26 pg/mL in the data set with NGFR-K562 (Table C). Besides, in the data set with NGFR-K562 (Table D, soluble SLAMF7 added 0 ng/ml), the “IFN-gamma, target cells NGFR K562 0 ng/ml” value is recorded as 267 pg/mL. For the same substance, in the data set with NGFR-K562 (Table D, soluble SLAMF7 added 50 ng/ml), the “IFN-gamma, target cells NGFR K562 50 ng/ml” value turned out to be 223 pg/mL. The “IFN-gamma, target cells NGFR K562 200 ng/ml” value in the data set on NGFR-K562 (Table D, soluble SLAMF7 added 200 ng/ml) was found to be 224 pg/mL. For the same substance, in the data set on MM.1S (Table C), the “IFN-gamma, target cells MM.1S” value was determined as 4269 pg/mL.
